The values that follow come from ChEMBL document CHEMBL5055686, “Discovery of AL-GDa62 as a Potential Synthetic Lethal Lead for the Treatment of Gastric Cancer” (J Med Chem, 2021).

In general, pEC50 refers to the negative decadic logarithm of the EC50, by convention in mol/L.

Test [1] relates to MCF-10A. The test can be described thus: Antitumor activity against human spontaneously immortalized wild type MCF-10A cells assessed as cell numbers measured after 48 hrs. It is filed as functional, cell-based. The settings on record: for pEC50: Homo sapiens, MCF-10A, 48 h, read-out: EC50; for EC50: mcf-10a.
Test [2] deals with MCF-10A. The test is described as follows: Antitumor activity against human spontaneously immortalized CDH-/- MCF10A cells assessed as cell numbers measured after 48 hrs. It is filed as functional, cell-based. The conditions noted are these: for pEC50: Homo sapiens, MCF-10A, 48 h, read-out: EC50; for EC50: mcf-10a.
Test [3] in a line: Ratio of EC50 for antitumor activity against human spontaneously immortalized wild type MCF10A cells assessed as cell numbers measured after 48 hrs to antitumor activity against human spontaneously immortalized CDH-/- MCF10A cells assessed as cell numbers measured after 48 hrs. It counts as functional, MCF-10A.

pEC50: −log10 of the molar value.

On to `COc1ccc2nc(C)cc(NCc3c(F)cccc3C(F)(F)F)c2c1`, for which the pEC50 with MCF-10A [1] and in the test on MCF-10A [2] was 4.85 each time. Also, the “Ratio EC50” value in test [3] is 1.

With `COc1ccc2nc(C)cc(NCc3cccc(OC(F)F)c3)c2c1`, the results for the negative-log EC50 (pEC50) in the test on MCF-10A [1] and with MCF-10A [2] were 4.84 and 4.99, respectively. For the same molecule, the “Ratio EC50” value in test [3] worked out at 1.3.

Consider `COc1ccc2nc(C)cc(Nc3ccc(F)cc3)c2c1`, for which the negative-log EC50 (pEC50) in the test on MCF-10A [1] was 4.53; with MCF-10A [2] it was 4.55. Moreover, the “Ratio EC50” value in test [3] stood at 1.1.

Take `COc1ccc2nc(C)cc(NCc3cccc(C#N)c3)c2c1`: the pEC50 was 4.76 with MCF-10A [1] and 4.87 in the test on MCF-10A [2]. The “Ratio EC50” value in test [3] is 1.3.

For `COc1ccc2nc(C)cc(NCc3cccc(N(C)C)c3)c2c1`, the pEC50 in the test on MCF-10A [1] and in the test on MCF-10A [2] was 4.85 in each case. Further, in test [3], the “Ratio EC50” value was determined as 1.

With `CCCCCCOc1ccc2nc(C)cc(NCc3ccc(F)cc3)c2c1`, the negative-log EC50 (pEC50) in the test with MCF-10A [1] was 5.04; in the test on MCF-10A [2] it was 5.06. Also, the “Ratio EC50” value in test [3] is 1.

Turning to `CCCCCCCCOc1ccc2nc(C)cc(NCc3ccc(F)cc3)c2c1`, the negative logarithm of the EC50 (pEC50) in the test on MCF-10A [1] is 5.66; with MCF-10A [2], 5.74. Also, the “Ratio EC50” value in test [3] was determined as 1.1.

As to `COc1ccc2nc(C)cc(NCc3ccncc3)c2c1`, the negative logarithm of the EC50 (pEC50) in the test on MCF-10A [1] is 4.38; with MCF-10A [2] it was 4.39. Also, the “Ratio EC50” value in test [3] is listed as 1.

Take `COc1ccc2nc(C)cc(NCC3CCCN(C)C3)c2c1` (stereo not given): the pEC50 with MCF-10A [1] is 5.24; with MCF-10A [2] it was 5.19.

On to `COc1ccc2nc(C)cc(NCc3cc(F)cc(F)c3)c2c1`, for which the pEC50 with MCF-10A [1] was 4.74; in the test on MCF-10A [2], 4.88. Further, the “Ratio EC50” value in test [3] worked out at 1.1.

For the molecule `COc1ccc2nc(C)cc(NCc3ccc(-c4ccccc4)cc3)c2c1`, the negative logarithm of the EC50 (pEC50) in the test on MCF-10A [1] is 5.57; with MCF-10A [2], 5.55. Moreover, the “Ratio EC50” value in test [3] worked out at 1.

For the molecule `COc1cc2c(NC3CCN(C)CC3)cc(-c3ccc(C)o3)nc2cc1OCCCN1CCCC1`, the pEC50 in the test on MCF-10A [1] is 6.30; in the test on MCF-10A [2] it was 6.70.

In the case of `Cc1cc(NCc2ccc(F)cc2)c2cc(OCCCCCCN=[N+]=[N-])ccc2n1`, the pEC50 with MCF-10A [1] is 5.40; in the test on MCF-10A [2], 5.39. Besides, in test [3], the “Ratio EC50” value stood at 1.

Take `COc1ccc2nc(COCCCCCCN=[N+]=[N-])cc(NCc3ccc(F)cc3)c2c1.O=C(O)C(F)(F)F`: the values for the pEC50 with MCF-10A [1] and in the test with MCF-10A [2] were 5.05 and 5.08, respectively. Moreover, the “Ratio EC50” value in test [3] was 1.1.

As for `COc1ccc2nc(C)cc(NCc3cccc(C(F)(F)F)c3)c2c1`, the pEC50 in the test on MCF-10A [1] was 5.10; in the test on MCF-10A [2] it was 5.14. Also, the “Ratio EC50” value in test [3] is on record as 1.

As for `Cc1cc(NCc2cccc(C#N)c2)c2cc(OCCCN3CCCC3)ccc2n1`, the negative logarithm of the EC50 (pEC50) was 4.99 in the test on MCF-10A [1] and 5.07 in the test with MCF-10A [2]. Besides, the “Ratio EC50” value in test [3] was determined as 1.2.

As for `COc1ccc(CNc2cc(C)nc3ccc(OC)cc23)cc1`, the negative-log EC50 (pEC50) in the test on MCF-10A [1] is 5.01; with MCF-10A [2] it was 5.15. Further, the “Ratio EC50” value in test [3] amounted to 1.4.

As for `COc1ccc2nc(C)cc(NCc3ccc(F)cc3F)c2c1`, the negative-log EC50 (pEC50) was 4.82 in the test on MCF-10A [1] and 4.94 in the test on MCF-10A [2]. In addition, the “Ratio EC50” value in test [3] came out at 1.3.

Turning to `CCCOc1ccc2nc(C)cc(NCc3ccc(F)cc3)c2c1`, the pEC50 is 4.84 with MCF-10A [1] and 5.01 in the test with MCF-10A [2]. The “Ratio EC50” value in test [3] turned out to be 1.5.

Regarding `COc1ccc2nc(C)cc(NCc3c(F)cccc3F)c2c1`, the negative-log EC50 (pEC50) in the test on MCF-10A [1] and with MCF-10A [2] was 4.87 each time. For the same molecule, in test [3], the “Ratio EC50” value stood at 1.3.

For `COc1ccc2nc(C)cc(NCc3ccc(OC(F)F)cc3)c2c1`, the negative logarithm of the EC50 (pEC50) in the test with MCF-10A [1] was 4.83; in the test with MCF-10A [2] it was 4.98. Further, the “Ratio EC50” value in test [3] amounted to 1.4.

Consider `COc1ccc2nc(C)cc(NCc3ccc(F)c(C(F)(F)F)c3)c2c1`, for which the pEC50 in the test on MCF-10A [1] is 4.84; with MCF-10A [2], 4.95. For the same molecule, in test [3], the “Ratio EC50” value amounted to 1.

For `CCCCCCCOc1cc(OC)cc2c(NCc3ccc(F)cc3)cc(C)nc12`, the pEC50 was 5.48 in the test on MCF-10A [1] and 5.57 with MCF-10A [2]. Moreover, in test [3], the “Ratio EC50” value amounted to 1.2.

Take `Cc1cc(NC2CCN(C)CC2)c2cc(OCCCN3CCCC3)ccc2n1`: the values for the pEC50 with MCF-10A [1] and with MCF-10A [2] were 4.94 and 4.88, respectively. In addition, the “Ratio EC50” value in test [3] came to 0.9.

Consider `COc1ccc2nc(C)cc(NCc3ccc(N(C)C)cc3)c2c1`, for which the negative-log EC50 (pEC50) with MCF-10A [1] was 4.70; with MCF-10A [2], 4.82. Also, the “Ratio EC50” value in test [3] was 1.3.

In the case of `COc1ccc2nc(C)cc(NC3CCN(C)CC3)c2c1`, the negative logarithm of the EC50 (pEC50) is 5.15 in the test on MCF-10A [1] and 5.11 in the test on MCF-10A [2]. Moreover, in test [3], the “Ratio EC50” value came to 0.9.

As for `COc1ccc2nc(C)cc(NCc3ccccc3F)c2c1`, the results for the pEC50 in the test with MCF-10A [1] and with MCF-10A [2] were 4.77 and 4.85, respectively. The “Ratio EC50” value in test [3] came to 1.2.

Take `COc1ccc2nc(C)cc(NCc3ccc(F)cc3)c2c1`: the results for the pEC50 in the test on MCF-10A [1] and in the test on MCF-10A [2] were 4.91 and 5.09, respectively. The “Ratio EC50” value in test [3] was found to be 1.5.

`COc1ccc2nc(C)cc(Nc3ccccc3)c2c1`: the pEC50 in the test with MCF-10A [1] is 4.80; in the test on MCF-10A [2], 4.75. Also, the “Ratio EC50” value in test [3] came out at 0.9.

In the case of `COc1cccc(CNc2cc(C)nc3ccc(OC)cc23)c1`, the pEC50 is 4.90 in the test with MCF-10A [1] and 5.01 in the test with MCF-10A [2]. Further, the “Ratio EC50” value in test [3] was determined as 1.3.

With `COc1ccc2nc(C)cc(NCC[C@@H]3CNC[C@H]3O)c2c1.O=C(O)C(F)(F)F`, the EC50 entry in the test with MCF-10A [1] and in the test with MCF-10A [2] was “Nd(Toxic)” in each case.

Take `COc1ccc2nc(C)cc(NCc3ccc(F)c(OC)c3)c2c1`: the pEC50 is 4.89 with MCF-10A [1] and 5.02 in the test with MCF-10A [2].

With `COc1ccc2nc(C)cc(NCc3cccc(CO)c3)c2c1`, the values for the pEC50 in the test with MCF-10A [1] and in the test with MCF-10A [2] were 4.61 and 4.77, respectively. In addition, the “Ratio EC50” value in test [3] was found to be 1.4.

In the case of `COc1ccc2nc(C)cc(NCc3ccc(OC)c(F)c3)c2c1`, the values for the negative-log EC50 (pEC50) in the test on MCF-10A [1] and in the test on MCF-10A [2] were 4.99 and 5.05, respectively. In addition, the “Ratio EC50” value in test [3] is recorded as 1.1.

`CCCCCCCCCCOc1ccc2nc(C)cc(NCc3ccc(F)cc3)c2c1`: the negative logarithm of the EC50 (pEC50) in the test on MCF-10A [1] was 5.70; with MCF-10A [2], 5.72. The “Ratio EC50” value in test [3] turned out to be 1.

Regarding `COc1ccc2nc(C)cc(NCc3ccc(C(F)(F)F)cc3)c2c1`, the negative logarithm of the EC50 (pEC50) in the test with MCF-10A [1] and in the test with MCF-10A [2] was 5.12 each time. Moreover, the “Ratio EC50” value in test [3] came to 1.4.

With `COc1ccc2nc(C)cc(NCc3cccnc3)c2c1`, the negative logarithm of the EC50 (pEC50) in the test on MCF-10A [1] is 4.31; with MCF-10A [2] it was 4.35. The “Ratio EC50” value in test [3] is 1.1.

For the molecule `COc1ccc2nc(C)cc(NCc3ccc(C)cc3)c2c1`, the pEC50 with MCF-10A [1] was 4.65; in the test on MCF-10A [2], 4.73. Besides, in test [3], the “Ratio EC50” value was determined as 1.2.

For the molecule `COc1ccc2nc(C)cc(NCc3ccc(F)cc3C(F)(F)F)c2c1`, the pEC50 was 5.38 in the test with MCF-10A [1] and 5.28 with MCF-10A [2]. In addition, the “Ratio EC50” value in test [3] was determined as 0.8.

In the case of `COc1ccc2nc(C)cc(NCc3ccc(F)c(F)c3)c2c1`, the pEC50 is 4.92 in the test with MCF-10A [1] and 5.04 with MCF-10A [2]. Further, in test [3], the “Ratio EC50” value is 1.3.

Regarding `COc1ccc2nc(C)cc(NC[C@H]3NC[C@H](O)[C@@H]3O)c2c1.O=C(O)C(F)(F)F`, the EC50 entry in the test with MCF-10A [1] and with MCF-10A [2] was “Nd(Toxic)” each time.

Regarding `CCCCCCCOc1cc2nc(C)cc(NCc3ccc(F)cc3)c2cc1OC`, the negative logarithm of the EC50 (pEC50) with MCF-10A [1] was 5.66; with MCF-10A [2], 5.77.
